The values that follow are results of earlier work, collected in article PMC4207555 (Drug Design, Development and Therapy, 2014).

Series [1] relates to microtubules. The following applies: read-out: stabilization of microtubules against cold-induced depolymerization (concentration producing 50% cell killing).
In series [2] the test system is HID28.
The test system of series [3] is P-glycoprotein-expressing cell lines bearing acquired resistance. The following applies: range across P-glycoprotein-expressing cell lines.
The conditions of series [4]: Phase III clinical studies in a number of tumor types.
Series [5] concerns tubulin.
For series [6] the following is noted: rats; ref Sanofi, data on file, 2013.
The conditions of series [7]: humans, over 7 days.
Series [8] has as its system mCRPC that had progressed on previous docetaxel-based therapy.

Consider `CC(=O)O[C@@]12CO[C@@H]1C[C@H](O)[C@@]1(C)C(=O)[C@H](O)C3=C(C)[C@@H](OC(=O)[C@H](O)[C@@H](NC(=O)OC(C)(C)C)c4ccccc4)C[C@@](O)([C@@H](OC(=O)c4ccccc4)[C@H]21)C3(C)C` [Docetaxel, reference compound], for which the lipophilicity (logP) is 3.2. Moreover, the IC50 in series [1] was 100 to 250 nM. The “percentage tumor volume change (treated/control mean tumor volume)” value in series [2] (HID28, 20 mg/kg, Day 35) is 16.7%. In addition, the Resistance factors in series [3] was 5–59. In series [4], the “incidence of grade 3/4 sensory neuropathy” value is reported as 0%–7. For the same compound, the “lag time to 50% aggregation (reduction in lag time for tubulin assembly)” value in [5] was 0 to 0.1 µmol/L. For the same compound, the “HNLD as single dose” value in [6] was 10 mg/kg. For the same compound, in series [7], the “administered dose of 14C excreted in the feces” value was 80% and the “administered dose of 14C recovered in the urine” value is reported as “approximately 5%”.

With `O=C1c2c(O)ccc(O)c2C(=O)c2c(NCCNCCO)ccc(NCCNCCO)c21` [mitoxantrone, reference compound], in [8], the prostate-specific antigen response is recorded as 17.8% and the “rate of objective tumor response” value is recorded as 4.4%. Also, in series [8] (plus prednisone/prednisolone), the median overall survival was 12.7 months and the median progression-free survival is recorded as 1.4 months.

As to `CC(=O)O[C@H]1CC[C@@]2(C)C(=CC[C@@H]3[C@@H]2CC[C@]2(C)C(c4cccnc4)=CC[C@@H]32)C1` [abiraterone acetate, reference compound], the antitumor activity result in [2] (HID28, 50 mg/kg orally daily for 21 days) is given as “No antitumor activity”.

By logP is commonly meant the decadic logarithm of the partition coefficient of the neutral form, usually between octanol and water.
